Data set [1] can be described thus: in vivo. The conditions noted are these: mouse, po.
The test system of data set [2] is neuroleptic-induced catatonia. Description: Inhibition of neuroleptic (prochlorperazine)-induced catatonia (preventive). It is filed as in vivo, rat (male, OFA strain). The conditions noted are these: for activity relative to amantadine, neuroleptic-induced catatonia: times more active than amantadine. How it is done: The blocking of dopaminergic receptors by neuroleptics in the extra-pyramidal system induces catatonia in the rat. Catatonia is differentiated from sedative properties by means of the test used hereabove for reserpine-induced catatonia. The same system of scoring was also employed in the present case.
An oral dose of the compound to be studied in aqueous solution was administered to batches of 10 male rats of the OFA strain weighing about 150 to 200 g.
Three hours after the injection of this latter compound, catatonia was measured. An identical trial was also carried out with control animals which received prochlorperazine but none of the compounds under study.
The scoring system used was that given hereabove for Table I.

Data set [3] deals with reserpine-induced catatonia. Description: Inhibition of reserpine-induced catatonia (preventive, oral compound 30 min before reserpine). It counts as in vivo, rat (male, OFA strain). On the procedure:
After sufficient doses of reserpine have been administered to the rat, a series of symptoms occur, more particularly ptosis, catatonia and a drop in central temperature. These symptoms are caused by the depletion of the intragranular reserve pool of biogenetic amines at the synaptic terminals.
An oral dose of the compound to be studied in aqueous solution was administered to batches of 10 male rats of the OFA strain weighing about 150 to 200 g. Thirty minutes later a dose of 5 mg/kg of reserpine was given by intraperitoneal route. Three hours after the injection of reserpine, the animals were suspended by the four paws to a horizontally stretched wire fixed at 15 cm from the ground. The catatonia animals were those which maintained the position so given for at least 30 seconds. […] The maximum score was therefore 10 per batch. An identical trial was undertaken with control animals which received reserpine but none of the compounds being studied.

From patent US4201725A, “Secondary amines” (priority 1974, dated 1980) come the findings set out here.

SMILES strings stand for the structures. Some results are limits rather than exact numbers.

As to `CCCC(N)(CC)CCC` [Compound 2, 1-Ethyl-1-n-propyl-n-butylamine], in data set [1], the selectivity ratio is 30. The “Inhibition of the neuroleptic-induced catatonia” value in data set [2] (5 mg/kg oral) is 1 (represents 20 to 30% inhibition of catatonia in comparison with the controls).

Regarding `CCCC(N)(CC)CC(C)C` (centres unmarked) [Compound 3, 1-Ethyl-1-isobutyl-n-butylamine], the “Inhibition of the neuroleptic-induced catatonia” value in data set [2] (20 mg/kg oral) is on record as 3 (represents 70 to 80% inhibition of catatonia in comparison with the controls).

Consider `CCCC(N)(CCC)CC(C)C` [Compound 5, 1-n-Propyl-1-isobutyl-n-butylamine], for which the “Inhibition of reserpine-induced catatonia” value in data set [3] (20 mg/kg oral) was 2 (represents 50% inhibition of catatonia in comparison with the controls). The “activity relative to amantadine, neuroleptic-induced catatonia” value in data set [2] is reported as “five times more active”.

`CCCC(C)(N)CC(C)CC` (centres unmarked) [Compound 6, 1,3-Dimethyl-1-n-propyl-n-pentylamine]: the selectivity ratio in data set [1] is greater than 25.

For the compound `CCCCC(C)(N)CC(C)C` (centres unmarked) [Compound 8, 1-Methyl-1-isobutyl-n-pentylamine], the “activity relative to amantadine, neuroleptic-induced catatonia” value in data set [2] is listed as “twice as active”.

As for `CCCCCC(C)(N)CCC` (centres unmarked) [Compound 9, 1-Methyl-1-n-propyl-n-hexylamine], the selectivity ratio in data set [1] was 87.

Turning to `CCCCC(C)CC(C)(C)N` (centres unmarked) [Compound 13, 1,1,3-Trimethyl-n-heptylamine], the “Inhibition of reserpine-induced catatonia” value in data set [3] (25 mg/kg oral) is 1 (represents 20 to 30% inhibition of catatonia in comparison with the controls). For the same compound, the “Inhibition of the neuroleptic-induced catatonia” value in data set [2] (50 mg/kg oral) is recorded as 1 (represents 20 to 30% inhibition of catatonia in comparison with the controls).

On to `CCCC(N)(CCC)CC(C)C` [Compound 19, 1-n-Propyl-1-isobutyl-n-butylamine], for which the “Inhibition of reserpine-induced catatonia” value in data set [3] (6 mg/kg oral) was 3 (represents 70 to 80% inhibition of catatonia in comparison with the controls). The “Inhibition of the neuroleptic-induced catatonia” value in data set [2] (6 mg/kg oral) was 3 (represents 70 to 80% inhibition of catatonia in comparison with the controls).

As to `CCCC(CCC)(CCC)N(C)C` [Compound 28, N,N-Dimethyl-1,1-di-n-propyl-n-butylamine], in data set [3] (6 mg/kg oral), the “Inhibition of reserpine-induced catatonia” value is 4 (represents 100% inhibition of catatonia in comparison with the controls). In addition, the entries for the “Inhibition of the neuroleptic-induced catatonia” value in data set [2] (3 mg/kg oral) and in data set [2] (6 mg/kg oral) were 2 (represents 50% inhibition of catatonia in comparison with the controls) and 4 (represents 100% inhibition of catatonia in comparison with the controls), respectively.

`CCCC(CCC)(CCC)N1CCC1` [Compound 29, N,N-Trimethylene-1,1-di-n-propyl-n-butylamine]: the results for the “Inhibition of reserpine-induced catatonia” value in data set [3] (3 mg/kg oral) and in data set [3] (6 mg/kg oral) were 3 (represents 70 to 80% inhibition of catatonia in comparison with the controls) and 4 (represents 100% inhibition of catatonia in comparison with the controls), respectively. The selectivity ratio in data set [1] was 10.8. The “Inhibition of the neuroleptic-induced catatonia” value was 2 (represents 50% inhibition of catatonia in comparison with the controls) in data set [2] (3 mg/kg oral) and 4 (represents 100% inhibition of catatonia in comparison with the controls) in data set [2] (6 mg/kg oral).

`CCCC(CCC)(CC(C)C)NC` [Compound 31, N-Methyl-1-n-propyl-1-isobutyl-n-butylamine]: in data set [3] (6.5 mg/kg oral), the “Inhibition of reserpine-induced catatonia” value was 3 (represents 70 to 80% inhibition of catatonia in comparison with the controls). For the same compound, in data set [2] (6.5 mg/kg oral), the “Inhibition of the neuroleptic-induced catatonia” value is 4 (represents 100% inhibition of catatonia in comparison with the controls).

For the compound `CCCC(CCC)(CCC)NCC` [Compound 33, N-Ethyl-1,1-di-n-propyl-n-butylamine], the “Inhibition of reserpine-induced catatonia” value in data set [3] (6 mg/kg oral) is recorded as 2 (represents 50% inhibition of catatonia in comparison with the controls). Moreover, the selectivity ratio in data set [1] was found to be 16.5. Moreover, the “Inhibition of the neuroleptic-induced catatonia” value in data set [2] (6 mg/kg oral) is recorded as 4 (represents 100% inhibition of catatonia in comparison with the controls).

For `CCCC(CCC)(CCC)NC(C)C` [Compound 34, N-Isopropyl-1,1-di-n-propyl-n-butylamine], the “Inhibition of reserpine-induced catatonia” value is listed as 2 (represents 50% inhibition of catatonia in comparison with the controls) in data set [3] (6.5 mg/kg oral) and 4 (represents 100% inhibition of catatonia in comparison with the controls) in data set [3] (13 mg/kg oral). The selectivity ratio in data set [1] is 21.6. The “Inhibition of the neuroleptic-induced catatonia” value in data set [2] (3 mg/kg oral) was 2 (represents 50% inhibition of catatonia in comparison with the controls); in data set [2] (6.5 mg/kg oral), 4 (represents 100% inhibition of catatonia in comparison with the controls).

In the case of `C=CCNC(CCC)(CCC)CCC` [Compound 35, N-Allyl-1,1-di-n-propyl-n-butylamine], the “Inhibition of reserpine-induced catatonia” value in data set [3] (6 mg/kg oral) is recorded as 2 (represents 50% inhibition of catatonia in comparison with the controls). For the same compound, the selectivity ratio in data set [1] amounted to 21. The “Inhibition of the neuroleptic-induced catatonia” value in data set [2] (6 mg/kg oral) is reported as 4 (represents 100% inhibition of catatonia in comparison with the controls).

As to `CCCC(CCC)(CC(C)C)N(C)C` [Compound 37, N,N-Dimethyl-1-n-propyl-1-isobutyl-n-butylamine], in data set [3] (6.5 mg/kg oral), the “Inhibition of reserpine-induced catatonia” value is on record as 3 (represents 70 to 80% inhibition of catatonia in comparison with the controls). In data set [2] (6.5 mg/kg oral), the “Inhibition of the neuroleptic-induced catatonia” value is given as 2 (represents 50% inhibition of catatonia in comparison with the controls).

As to `CCCC(CCC)(CCC)N(C)CC` [Compound 38, N-Methyl-N-ethyl-1,1-di-n-propyl-n-butylamine], the “Inhibition of reserpine-induced catatonia” value in data set [3] (6.5 mg/kg oral) was 2 (represents 50% inhibition of catatonia in comparison with the controls). Also, in data set [2] (6.5 mg/kg oral), the “Inhibition of the neuroleptic-induced catatonia” value was 2 (represents 50% inhibition of catatonia in comparison with the controls).

With `C#CCN(CC#C)C(CCC)(CCC)CCC` [Compound 39, N,N-Dipropargyl-1,1-di-n-propyl-n-butylamine], the “Inhibition of reserpine-induced catatonia” value in data set [3] (15 mg/kg oral) was 2 (represents 50% inhibition of catatonia in comparison with the controls).

On to `CCCC(CCC)(CCC)N1CC1` [Compound 40, N,N-Ethylene-1,1-di-n-propyl-n-butylamine], for which the “Inhibition of reserpine-induced catatonia” value in data set [3] (6 mg/kg oral) is reported as 2 (represents 50% inhibition of catatonia in comparison with the controls). Besides, the selectivity ratio in data set [1] was greater than 25. Moreover, the results for the “Inhibition of the neuroleptic-induced catatonia” value in data set [2] (6 mg/kg oral) and in data set [2] (12 mg/kg oral) were 1 (represents 20 to 30% inhibition of catatonia in comparison with the controls) and 3 (represents 70 to 80% inhibition of catatonia in comparison with the controls), respectively.

For `C=NC(CCC)(CCC)CCC` [Compound 41, N-Methylene-1,1-di-n-propyl-n-butylamine], the “Inhibition of reserpine-induced catatonia” value in data set [3] (5.5 mg/kg oral) is reported as 4 (represents 100% inhibition of catatonia in comparison with the controls). In addition, the selectivity ratio in data set [1] was determined as 27. In data set [2] (5.5 mg/kg oral), the “Inhibition of the neuroleptic-induced catatonia” value is 3 (represents 70 to 80% inhibition of catatonia in comparison with the controls).

With `CC=NC(CCC)(CCC)CCC` [Compound 42, N-Ethylidene-1,1-di-n-propyl-n-butylamine], the “Inhibition of reserpine-induced catatonia” value in data set [3] (6 mg/kg oral) is reported as 4 (represents 100% inhibition of catatonia in comparison with the controls). The selectivity ratio in data set [1] turned out to be 20. The “Inhibition of the neuroleptic-induced catatonia” value in data set [2] (6 mg/kg oral) is 2 (represents 50% inhibition of catatonia in comparison with the controls).

As to `CCCC(CCC)(CCC)NCCO` [Compound 43, N-(2-Hydroxyethyl)-1,1-di-n-propyl-n-butylamine], the “Inhibition of reserpine-induced catatonia” value in data set [3] (13 mg/kg oral) is 3 (represents 70 to 80% inhibition of catatonia in comparison with the controls). Further, in data set [1], the selectivity ratio was 23. Moreover, the “Inhibition of the neuroleptic-induced catatonia” value in data set [2] (6.5 mg/kg oral) is given as 1 (represents 20 to 30% inhibition of catatonia in comparison with the controls).

For the compound `CCCC(CCC)(CCC)N(CCO)CCO` [Compound 44, N,N-bis-(2-Hydroxyethyl)-1,1-di-n-propyl-n-butylamine], the “Inhibition of reserpine-induced catatonia” value in data set [3] (15 mg/kg oral) is 1 (represents 20 to 30% inhibition of catatonia in comparison with the controls). The “Inhibition of the neuroleptic-induced catatonia” value in data set [2] (15 mg/kg oral) is 1 (represents 20 to 30% inhibition of catatonia in comparison with the controls).

With `CCCC(CCC)(CCC)NCCCO` [Compound 45, N-(3-Hydroxy-n-propyl)-1,1-di-n-propyl-n-butylamine], the “Inhibition of reserpine-induced catatonia” value in data set [3] (14 mg/kg oral) is given as 2 (represents 50% inhibition of catatonia in comparison with the controls). The “Inhibition of the neuroleptic-induced catatonia” value in data set [2] (7 mg/kg oral) is listed as 2 (represents 50% inhibition of catatonia in comparison with the controls).

Take `CCCC(CCC)(CCC)N1CCOCC1` [Compound 46, N,N-(3-Oxapentamethylene)-1,1-di-n-propyl-n-butylamine]: the “Inhibition of reserpine-induced catatonia” value in data set [3] (8 mg/kg oral) is listed as 1 (represents 20 to 30% inhibition of catatonia in comparison with the controls). The selectivity ratio in data set [1] worked out at 31. In addition, the “Inhibition of the neuroleptic-induced catatonia” value in data set [2] (8 mg/kg oral) is given as 2 (represents 50% inhibition of catatonia in comparison with the controls).

As to `CCCNC(CCC)(CCC)CCC` [Compound 47, N-n-propyl-1,1-di-n-propyl-n-butylamine], the “Inhibition of the neuroleptic-induced catatonia” value in data set [2] (6.5 mg/kg oral) is reported as 2 (represents 50% inhibition of catatonia in comparison with the controls).
